Tests used:
Assay in all cases: biochemical
Parameters in all cases: KINOMEscan competition binding, DNA-tagged kinase against immobilised ligand, qPCR read-out
Details in all cases: read-out: Percent Control
INSR = INSR (Homo sapiens, UniProt P06213)
SRMS = SRMS (Homo sapiens, UniProt Q9H3Y6)
MAPK10 = MAPK10 (Homo sapiens, UniProt P53779)
AURKA = AURKA (Homo sapiens, UniProt O14965)
[1] = target: T1, JAK2(JH1domain-catalytic) (Homo sapiens, UniProt O60674)
T1 construct: JH1 domain catalytic

MAP2K4 = MAP2K4 (Homo sapiens, UniProt P45985)
NEK1 = NEK1 (Homo sapiens, UniProt Q96PY6)
Chain of NEK1 (Q96PY6 whole entry): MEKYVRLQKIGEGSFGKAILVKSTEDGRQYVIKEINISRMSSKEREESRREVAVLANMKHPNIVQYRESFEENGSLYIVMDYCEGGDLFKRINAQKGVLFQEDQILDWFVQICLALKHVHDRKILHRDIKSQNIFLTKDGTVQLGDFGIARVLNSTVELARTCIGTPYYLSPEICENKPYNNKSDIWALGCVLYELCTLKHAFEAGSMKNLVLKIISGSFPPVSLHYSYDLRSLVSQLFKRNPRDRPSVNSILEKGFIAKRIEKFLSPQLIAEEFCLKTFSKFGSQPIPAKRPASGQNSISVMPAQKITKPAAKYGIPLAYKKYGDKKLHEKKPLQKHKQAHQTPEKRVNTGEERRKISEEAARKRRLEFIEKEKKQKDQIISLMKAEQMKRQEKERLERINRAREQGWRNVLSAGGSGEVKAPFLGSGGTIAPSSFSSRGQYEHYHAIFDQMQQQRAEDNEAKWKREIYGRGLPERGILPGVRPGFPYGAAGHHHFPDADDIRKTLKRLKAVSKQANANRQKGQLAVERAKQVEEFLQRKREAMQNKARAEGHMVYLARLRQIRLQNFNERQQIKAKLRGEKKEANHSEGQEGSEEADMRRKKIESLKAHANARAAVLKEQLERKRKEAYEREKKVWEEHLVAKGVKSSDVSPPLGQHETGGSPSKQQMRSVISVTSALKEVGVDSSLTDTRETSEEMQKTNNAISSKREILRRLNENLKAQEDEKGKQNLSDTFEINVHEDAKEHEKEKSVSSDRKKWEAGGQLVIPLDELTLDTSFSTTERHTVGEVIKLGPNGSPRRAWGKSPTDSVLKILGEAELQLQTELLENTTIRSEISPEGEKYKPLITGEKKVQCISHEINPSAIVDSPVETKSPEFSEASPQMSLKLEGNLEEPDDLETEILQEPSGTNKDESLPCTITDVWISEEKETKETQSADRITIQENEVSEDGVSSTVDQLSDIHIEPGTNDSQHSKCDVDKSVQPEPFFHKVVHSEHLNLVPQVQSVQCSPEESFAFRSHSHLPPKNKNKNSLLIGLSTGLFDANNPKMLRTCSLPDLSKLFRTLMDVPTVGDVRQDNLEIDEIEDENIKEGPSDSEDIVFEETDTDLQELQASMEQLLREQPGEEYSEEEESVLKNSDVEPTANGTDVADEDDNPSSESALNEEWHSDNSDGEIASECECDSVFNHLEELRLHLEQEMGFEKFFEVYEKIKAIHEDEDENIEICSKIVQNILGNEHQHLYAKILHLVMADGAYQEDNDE

CLK2 = CLK2 (Homo sapiens, UniProt P49760)
CAMK2A = CAMK2A (Homo sapiens, UniProt Q9UQM7)
MTOR = MTOR (Homo sapiens, UniProt P42345)
BUB1 = BUB1 (Homo sapiens, UniProt O43683)
CASK = CASK (Homo sapiens, UniProt O14936)
GSG2 = target: T2, GSG2 (Homo sapiens, UniProt Q8TF76)
T2 construct: gene HASPIN
T2 sequence (Q8TF76 whole entry): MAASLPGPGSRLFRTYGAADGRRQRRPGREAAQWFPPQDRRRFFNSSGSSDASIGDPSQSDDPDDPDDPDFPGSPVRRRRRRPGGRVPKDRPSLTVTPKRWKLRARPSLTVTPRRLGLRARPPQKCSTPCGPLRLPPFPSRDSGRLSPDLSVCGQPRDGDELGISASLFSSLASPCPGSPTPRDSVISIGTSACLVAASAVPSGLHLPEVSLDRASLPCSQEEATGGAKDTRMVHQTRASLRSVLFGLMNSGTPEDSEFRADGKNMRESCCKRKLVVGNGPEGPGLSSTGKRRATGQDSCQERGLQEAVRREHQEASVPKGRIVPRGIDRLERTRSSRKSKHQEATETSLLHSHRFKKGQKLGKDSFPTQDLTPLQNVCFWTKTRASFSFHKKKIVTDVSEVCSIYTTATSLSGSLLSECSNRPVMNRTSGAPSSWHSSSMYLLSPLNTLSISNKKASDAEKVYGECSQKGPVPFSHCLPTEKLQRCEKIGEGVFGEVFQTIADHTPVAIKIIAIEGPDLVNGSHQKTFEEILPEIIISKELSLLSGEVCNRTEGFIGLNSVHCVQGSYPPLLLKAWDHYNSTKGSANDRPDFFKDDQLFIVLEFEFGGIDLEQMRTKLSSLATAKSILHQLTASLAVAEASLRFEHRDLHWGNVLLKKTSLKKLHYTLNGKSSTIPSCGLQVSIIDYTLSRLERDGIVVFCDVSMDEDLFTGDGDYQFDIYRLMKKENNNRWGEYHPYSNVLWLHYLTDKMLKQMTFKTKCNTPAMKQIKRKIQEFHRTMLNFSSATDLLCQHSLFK

PDPK1 = PDPK1 (Homo sapiens, UniProt O15530)
Chain of PDPK1 (O15530 whole entry): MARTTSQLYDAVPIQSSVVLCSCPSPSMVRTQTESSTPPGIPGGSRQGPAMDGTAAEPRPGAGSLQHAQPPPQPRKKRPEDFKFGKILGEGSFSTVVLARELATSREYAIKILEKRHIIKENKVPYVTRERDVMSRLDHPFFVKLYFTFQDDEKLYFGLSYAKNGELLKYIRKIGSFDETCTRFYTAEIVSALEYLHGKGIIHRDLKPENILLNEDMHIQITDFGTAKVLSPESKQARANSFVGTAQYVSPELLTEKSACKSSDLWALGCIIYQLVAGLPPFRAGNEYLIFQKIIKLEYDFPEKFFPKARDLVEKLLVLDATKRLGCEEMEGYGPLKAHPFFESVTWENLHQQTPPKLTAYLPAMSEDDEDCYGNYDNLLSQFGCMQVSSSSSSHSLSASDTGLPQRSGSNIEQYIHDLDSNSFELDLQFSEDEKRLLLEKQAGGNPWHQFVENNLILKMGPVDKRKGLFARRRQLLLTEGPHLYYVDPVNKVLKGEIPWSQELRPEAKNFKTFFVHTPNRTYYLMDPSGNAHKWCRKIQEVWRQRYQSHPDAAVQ

LYN = LYN (Homo sapiens, UniProt P07948)
MAPK12 = MAPK12 (Homo sapiens, UniProt P53778)
NEK7 = NEK7 (Homo sapiens, UniProt Q8TDX7)
MAP3K11 = MAP3K11 (Homo sapiens, UniProt Q16584)
Chain of MAP3K11 (Q16584 whole entry): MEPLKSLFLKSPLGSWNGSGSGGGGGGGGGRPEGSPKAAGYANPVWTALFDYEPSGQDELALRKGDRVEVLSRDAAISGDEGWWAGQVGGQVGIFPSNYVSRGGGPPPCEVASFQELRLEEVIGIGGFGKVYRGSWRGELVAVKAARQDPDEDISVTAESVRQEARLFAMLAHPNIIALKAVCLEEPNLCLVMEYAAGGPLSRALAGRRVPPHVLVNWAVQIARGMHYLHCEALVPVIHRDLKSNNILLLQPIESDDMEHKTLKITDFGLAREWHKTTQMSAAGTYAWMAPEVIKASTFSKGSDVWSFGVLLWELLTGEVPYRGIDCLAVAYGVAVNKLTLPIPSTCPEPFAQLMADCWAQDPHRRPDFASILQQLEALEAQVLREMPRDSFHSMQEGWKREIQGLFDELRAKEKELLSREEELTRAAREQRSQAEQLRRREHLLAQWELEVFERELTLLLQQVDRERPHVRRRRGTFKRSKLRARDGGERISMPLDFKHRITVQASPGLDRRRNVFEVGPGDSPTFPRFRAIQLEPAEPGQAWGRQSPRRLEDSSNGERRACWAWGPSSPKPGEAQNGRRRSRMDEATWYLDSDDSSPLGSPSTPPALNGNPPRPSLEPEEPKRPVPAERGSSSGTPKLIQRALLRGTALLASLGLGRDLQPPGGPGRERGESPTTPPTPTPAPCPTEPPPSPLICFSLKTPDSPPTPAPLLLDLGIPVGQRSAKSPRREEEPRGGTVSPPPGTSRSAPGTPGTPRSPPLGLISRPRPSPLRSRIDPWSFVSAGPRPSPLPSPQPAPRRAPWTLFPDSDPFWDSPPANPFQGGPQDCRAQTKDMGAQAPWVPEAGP

EPHB3 = EPHB3 (Homo sapiens, UniProt P54753)
RIOK2 = RIOK2 (Homo sapiens, UniProt Q9BVS4)

Chain of AURKA (O14965 whole entry): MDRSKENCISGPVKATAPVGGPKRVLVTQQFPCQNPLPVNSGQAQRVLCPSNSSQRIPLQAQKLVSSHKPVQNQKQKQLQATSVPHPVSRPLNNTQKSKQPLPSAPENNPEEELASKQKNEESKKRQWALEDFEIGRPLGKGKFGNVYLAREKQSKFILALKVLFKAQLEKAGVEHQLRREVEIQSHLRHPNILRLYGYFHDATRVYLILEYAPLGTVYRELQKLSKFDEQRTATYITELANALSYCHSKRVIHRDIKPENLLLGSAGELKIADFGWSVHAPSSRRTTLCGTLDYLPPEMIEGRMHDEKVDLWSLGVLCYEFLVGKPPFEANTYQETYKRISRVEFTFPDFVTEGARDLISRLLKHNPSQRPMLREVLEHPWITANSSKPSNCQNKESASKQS
T1 sequence (O60674 whole entry, the tested form may be a part): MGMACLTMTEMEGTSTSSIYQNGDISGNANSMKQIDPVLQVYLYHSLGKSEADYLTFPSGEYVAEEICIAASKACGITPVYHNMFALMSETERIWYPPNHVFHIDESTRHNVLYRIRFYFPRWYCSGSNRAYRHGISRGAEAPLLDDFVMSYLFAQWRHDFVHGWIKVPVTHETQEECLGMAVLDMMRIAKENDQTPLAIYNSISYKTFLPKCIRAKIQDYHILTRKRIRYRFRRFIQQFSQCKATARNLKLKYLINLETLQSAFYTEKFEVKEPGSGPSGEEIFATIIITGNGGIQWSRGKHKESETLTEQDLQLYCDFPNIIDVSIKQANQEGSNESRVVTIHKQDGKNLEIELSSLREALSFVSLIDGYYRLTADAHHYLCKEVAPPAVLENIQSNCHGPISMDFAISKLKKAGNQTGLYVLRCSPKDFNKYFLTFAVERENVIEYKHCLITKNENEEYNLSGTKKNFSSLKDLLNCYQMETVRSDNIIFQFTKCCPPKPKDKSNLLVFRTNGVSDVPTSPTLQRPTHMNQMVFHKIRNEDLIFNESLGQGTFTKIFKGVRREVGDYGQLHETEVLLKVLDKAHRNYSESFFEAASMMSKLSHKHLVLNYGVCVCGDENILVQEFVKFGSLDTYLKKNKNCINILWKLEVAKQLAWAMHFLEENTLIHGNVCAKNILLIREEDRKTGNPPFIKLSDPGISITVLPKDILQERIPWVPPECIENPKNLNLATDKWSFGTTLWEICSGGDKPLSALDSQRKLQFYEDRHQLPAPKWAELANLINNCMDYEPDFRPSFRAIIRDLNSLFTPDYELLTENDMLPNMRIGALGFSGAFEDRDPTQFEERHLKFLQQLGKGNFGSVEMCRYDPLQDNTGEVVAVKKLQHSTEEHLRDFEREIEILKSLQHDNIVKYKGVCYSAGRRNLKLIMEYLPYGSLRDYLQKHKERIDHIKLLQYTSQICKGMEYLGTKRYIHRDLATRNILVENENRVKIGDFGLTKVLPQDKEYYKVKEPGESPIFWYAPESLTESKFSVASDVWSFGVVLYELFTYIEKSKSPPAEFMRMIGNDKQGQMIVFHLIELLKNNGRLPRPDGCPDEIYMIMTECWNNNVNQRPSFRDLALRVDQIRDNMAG

For `Oc1ccc(C2=Cc3ccc(O)cc3OC2)cc1` [compound 1, idronoxil], which remaining binding at 10 µM (INSR) is on record?
Its remaining binding at 10 µM is 71%.

What about the remaining binding at 10 µM (SRMS) of the same compound?
The remaining binding at 10 µM was 68%.

And the remaining binding at 10 µM (MAPK10)?
Its remaining binding at 10 µM is 93%.

And the remaining binding at 10 µM (AURKA)?
The remaining binding at 10 µM was 92%.

And the remaining binding at 10 µM [1]?
The remaining binding at 10 µM was 81%.

And the remaining binding at 10 µM (MAP2K4)?
Its remaining binding at 10 µM is 91%.

What about the remaining binding at 10 µM (NEK1) of the same compound?
Its remaining binding at 10 µM is 71%.

What about the remaining binding at 10 µM (CLK2) of the same compound?
Its remaining binding at 10 µM is 69%.

And the remaining binding at 10 µM (CAMK2A)?
Its remaining binding at 10 µM is 87%.

And the remaining binding at 10 µM (MTOR)?
Its remaining binding at 10 µM is 73%.

And the remaining binding at 10 µM (BUB1)?
Its remaining binding at 10 µM is 91%.

What about the remaining binding at 10 µM (CASK) of the same compound?
The remaining binding at 10 µM was 65%.

And the remaining binding at 10 µM (GSG2)?
Its remaining binding at 10 µM is 5.3%.

What about the remaining binding at 10 µM (PDPK1) of the same compound?
Its remaining binding at 10 µM is 79%.

What about the remaining binding at 10 µM (LYN) of the same compound?
Its remaining binding at 10 µM is 71%.

What about the remaining binding at 10 µM (MAPK12) of the same compound?
Its remaining binding at 10 µM is 100%.

And the remaining binding at 10 µM (NEK7)?
Its remaining binding at 10 µM is 99%.

What about the remaining binding at 10 µM (MAP3K11) of the same compound?
The remaining binding at 10 µM was 63%.

And the remaining binding at 10 µM (EPHB3)?
Its remaining binding at 10 µM is 95%.

What about the remaining binding at 10 µM (RIOK2) of the same compound?
The remaining binding at 10 µM was 82%.

Reference: article PMC10507085, “Pharmacological inhibition of TBK1/IKKε blunts immunopathology in a murine model of SARS-CoV-2 infection” (Nature Communications, 2023)
